Assay results published in patent publication US20260258084A1, “New Peptides as Selective IL-23 Receptor Antagonists” (Sanofi, priority 2022, published 2026).
Starred links: 1 amine or outer side, 2 acyl side, 3 side chain; linkers in the order of their positions; H or OH if unused. Positions of bridges follow the written chain, without caps; N, C: chain ends. Non-standard residues stand in square brackets, D forms with d. Residues, ends and D or L forms follow the SMILES beside them. *: point of attachment. X6 = O=C(CCC(=O)[*:3])N[C@@H](CS[*:2])C(=O)[*:1]; Trp(7-Me) = Cc1cccc2c(C[C@H](N)C(=O)O)c[nH]c12; 2Nal = N[C@@H](Cc1ccc2ccccc2c1)C(=O)O; 3Pal = N[C@@H](Cc1cccnc1)C(=O)O; Lys(Me) = CNCCCC[C@H](N)C(=O)O; αMeL = CC(C)C[C@](C)(N)C(=O)O; Suc = O=C(CCC(=O)[*:2])[*:1]; Me2NCH2CH2 = CN(C)CC*; Aib = CC(C)(N)C(=O)O; Ava = NCCCCC(=O)O; Sar = CNCC(=O)O

Columns and labels:
[1] = biological target: T1, human interleukin-23 receptor (recombinant human IL-23R-Fc chimera) (Homo sapiens, UniProt Q5VWK5); experiment: Human ELISA IL23/IL23R (assay for specific human IL23R antagonists); format: binding; details: Table 10; read-out: Human ELISA IL23/IL23R IC50
T1 construct: Fc (IgG Fc fusion)
How it was run: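 Plates coated overnight at 4 °C with human IL23 ([…]), blocked, then serially diluted peptides added with recombinant human IL-23R-Fc (0.1 μg/ml final) for 60 min at room temperature. Bound receptor detected with anti-human IgG1-HRP and fluorogenic peroxidase substrate.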

[2] = tested on: IL-23 induced STAT3 signaling in HEK-Blue™ IL-23 cells; experiment: IL-23 induced STAT3 signaling in HEK-Blue IL-23 cells (SEAP reporter); format: cell-based; details: human IL23 0.25 ng/ml, read-out: pSTAT3
How it was run: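 HEK-Blue IL-23 cells (10,000/well) pre-incubated 60 min at 37 °C with serially diluted peptides, then stimulated overnight with human IL-23 (0.25 ng/ml final). STAT3-driven SEAP in supernatant detected with QUANTI-Blue after 45 min at RT (OD 620-655 nm); dose-response curves fitted.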

Pepsin = tested on: T2, Pepsin; experiment: Protease stability in simulated gastric fluid (Pepsin-SGF, FaSSGF); format: in vitro ADME; details: simulated gastric fluid with pepsin (Pepsin-SGF), 60 min, 1 μM peptide, 37° C., read-out: FaSSGF 60 (min), remaining percent of peptide
T2 construct: purchased Merck Millipore
How it was run: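 Peptides at 1 μM final in pepsin-containing SGF at 37° C, sampled at 0, 60, 120 and 240 min, quenched with ethanol (0.1% HCOOH). Analysed by LCMS/MS; percent remaining from peak area relative to time 0 (set to 100%).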

Pancreatin = experiment: Protease stability in simulated intestinal fluid (Pancreatin-SIF, FaSSIF); format: in vitro ADME; details: 1 μM peptide, 37° C.; for remaining at 1 h, 1 µM: 60 min, read-out: FaSSIF 60 (min), remaining percent of peptide; for remaining at 2 h, 1 µM: 120 min, read-out: FaSSIF 120 (min), remaining percent of peptide; for remaining at 4 h, 1 µM: 240 min, read-out: FaSSIF 240 (min), remaining percent of peptide
How it was run: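 Peptide (1 μM final) was incubated at 37° C in simulated intestinal fluid containing pancreatin (1 mg per 10 mL SIF concentrate). Samples were quenched with ethanol/0.1% HCOOH at 0, 60, 120 and 240 min and analysed by LC-MS/MS. Percent remaining is the peak area relative to time 0 (100%).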

Row | Compound | IC50 [1] [nM] | IC50 [2] [nM] | remaining at 1 h, 1 µM (Pepsin) [%] | remaining at 1 h, 1 µM (Pancreatin) [%] | remaining at 2 h, 1 µM (Pancreatin) [%] | remaining at 4 h, 1 µM (Pancreatin) [%]
1 | CC(=O)NCCCC[C@@H]1NC(=O)[C@H](Cc2c[nH]c3c(C)cccc23)NC(=O)[C@@H](NC(C)=O)CCCCNC(=O)[C@@H]2CSSC[C@H](NC1=O)C(=O)N[C@@H](Cc1ccc(OCCN(C)C)cc1)C(=O)N[C@@H](Cc1ccc3ccccc3c1)C(=O)N[C@@](C)(CC(C)C)C(=O)N[C@H](C(=O)N[C@@H](CC(N)=O)C(=O)N[C@@H](Cc1cccnc1)C(=O)N(C)CC(N)=O)CCCCNC(=O)CCC(=O)N2 [compound 106] (Ac-K[Trp(7-Me)]K(Ac)CY(Me2NCH2CH2)[2Nal][αMeL]KN[3Pal][Sar]-NH2; linker 1-4-8 via X6) | 0.65 | 0.13 | 90 | 76 | 76 | 74
2 | Cc1cccc2c(C[C@@H]3NC(=O)[C@H]([C@@H](C)O)NC(=O)[C@H](CC(N)=O)NC(=O)[C@@H]4CSSC[C@H](NC(=O)[C@H](CCC(N)=O)NC3=O)C(=O)N[C@@H](Cc3ccc(OCCN(C)C)cc3)C(=O)N[C@@H](Cc3ccc5ccccc5c3)C(=O)NC(C)(C)C(=O)N[C@H](C(=O)N[C@@H](CC(N)=O)C(=O)N[C@@H](Cc3cccnc3)C(=O)N(C)CC(N)=O)CCC(=O)NCCCCC(=O)N4)c[nH]c12 [compound 62] ([Ava]CNT[Trp(7-Me)]QCY(Me2NCH2CH2)[2Nal][Aib]EN[3Pal][Sar]-NH2; disulfide 2-7; lactam N-11) | 0.35 | 0.2 | 100 | 95 | 87 | 84
3 | CC(=O)N[C@H]1CCCCNC(=O)[C@@H]2CSSC[C@H](NC(=O)[C@H](CC(C)C)NC(=O)[C@H](Cc3c[nH]c4c(C)cccc34)NC1=O)C(=O)N[C@@H](Cc1ccc(OCCN(C)C)cc1)C(=O)N[C@@H](Cc1ccc3ccccc3c1)C(=O)N[C@@](C)(CC(C)C)C(=O)N[C@H](C(=O)N[C@@H](CC(N)=O)C(=O)N[C@@H](Cc1cccnc1)C(=O)N(C)CC(N)=O)CCCCN(C)C(=O)CCC(=O)N2 [compound 68] (Ac-K[Trp(7-Me)]LCY(Me2NCH2CH2)[2Nal][αMeL][Lys(Me)]N[3Pal][Sar]-NH2; linker 1-4-8 via X6) | 1.48 | 2.69 | 39 | 91 | 91 | 86
4 | CC(=O)NCCCC[C@@H]1NC(=O)[C@H](Cc2c[nH]c3c(C)cccc23)NC(=O)[C@H]([C@@H](C)O)NC(=O)[C@H](CC(N)=O)NC(=O)[C@@H]2CSSC[C@H](NC1=O)C(=O)N[C@@H](Cc1ccc(OCCN(C)C)cc1)C(=O)N[C@@H](Cc1ccc3ccccc3c1)C(=O)N[C@@](C)(CC(C)C)C(=O)N[C@H](C(=O)N[C@@H](CC(N)=O)C(=O)N[C@@H](Cc1cccnc1)C(=O)N(C)CC(N)=O)CCCCNC(=O)CCC(=O)N2 [compound 103] (CNT[Trp(7-Me)]K(Ac)CY(Me2NCH2CH2)[2Nal][αMeL]KN[3Pal][Sar]-NH2; disulfide 1-6; linker N-10 via Suc) | 0.56 | 0.11 | 89 | 75 | 73 | 67
5 | CC(=O)NCCCC[C@@H]1NC(=O)[C@H](Cc2c[nH]c3c(C)cccc23)NC(=O)[C@H]([C@@H](C)O)NC(=O)[C@H](CC(N)=O)NC(=O)[C@@H]2CSSC[C@H](NC1=O)C(=O)N[C@@H](Cc1ccc(OCCN(C)C)cc1)C(=O)N[C@@H](Cc1ccc3ccccc3c1)C(=O)NC(C)(C)C(=O)N[C@H](C(=O)N[C@@H](CC(N)=O)C(=O)N[C@@H](Cc1cccnc1)C(=O)N(C)CC(N)=O)CCCCNC(=O)CCC(=O)N2 [compound 157] (CNT[Trp(7-Me)]K(Ac)CY(Me2NCH2CH2)[2Nal][Aib]KN[3Pal][Sar]-NH2; disulfide 1-6; linker N-10 via Suc) | 0.42 | 0.06 | 100 | 80 | 78 | 74
